Measurements reported in patent US20100298141A1, “SUBSTITUTED PYRIDINE N-OXIDE HERBICIDES” (E. I. DU PONT DE NEMOURS AND COMPANY, priority 2007, published 2010).

How the values were obtained:
windgrass = assay: Test C pre-/postemergence test; assay type: in vivo, Apera spica-venti; conditions: Postemergence; for Plant response rating, Windgrass: scale 0 to 100, 0 no effect, 100 complete control
Text: Seeds of plant species selected from blackgrass (Alopecurus myosuroides), downy brome (Bromus tectorum), green foxtail (Setaria viridis), Italian ryegrass (Lolium multiflorum), wheat (Triticum aestivum), wild oat (Avena fatua), catchweed bedstraw (Galium aparine), Russian thistle (Salsola kali), […] (Cynodon dactylon), Surinam grass (Brachiaria decumbens), cocklebur (Xanthium strumarium), corn (Zea mays), crabgrass (Digitaria sanguinalis), woolly cupgrass (Eriochloa villosa), giant foxtail (Setaria faberii), Goosegrass (Eleusin indica), johnsongrass (Sorghum halepense), kochia (Kochia scoparia), lambsquarters (Chenopodium album), morningglory (Ipomoea coccinea), eastern black nightshade (Solanum ptycanthum), yellow nutsedge (Cyperus esculentus), pigweed (Amaranthus retroflexus), common ragweed (Ambrosia elation), soybean (Glycine max), common (oilseed) sunflower (Helianthus annuus), and velvetleaf (Abutilon theophrasti) were planted and treated preemergence with test chemicals formulated in a non-phytotoxic solvent mixture which included a surfactant. At the same time, plants selected from these crop and weed species and also winter barley (Hordeum vulgare), canarygrass (Phalaris minor), and chickweed (Stellaria media) were treated with postemergence applications of some of the test chemicals formulated in the same manner. Plants ranged in height from 2 to 18 cm (1- to 4-leaf stage) for postemergence treatments. […] At time of treatment, test pots were flooded to 3 cm above the soil surface, treated by application of test compounds directly to the paddy water, and then maintained at that water depth for the duration of the test. […] A dash (-) response means no test result.

winter barley = assay: Test C postemergence test; assay type: in vivo, Hordeum vulgare; conditions: for Plant response rating, Barley: scale 0 to 100, 0 no effect, 100 complete control
Description: (§1) At the same time, plants selected from these crop and weed species and also winter barley (Hordeum vulgare), canarygrass (Phalaris minor), and chickweed (Stellaria media) were treated with postemergence applications of some of the test chemicals formulated in the same manner. Plants ranged in height from 2 to 18 cm (1- to 4-leaf stage) for postemergence treatments. […] At time of treatment, test pots were flooded to 3 cm above the soil surface, treated by application of test compounds directly to the paddy water, and then maintained at that water depth for the duration of the test. Treated plants and controls were maintained in a greenhouse for 13 to 15 days, after which time all species were compared to controls and visually evaluated. […] A dash (-) response means no test result.

canarygrass = assay: Test C postemergence test; assay type: in vivo, Phalaris minor; conditions: for Plant response rating, Canarygrass: scale 0 to 100, 0 no effect, 100 complete control
Description: as §1

chickweed = assay: Test C postemergence test; assay type: in vivo, Stellaria media; conditions: for Plant response rating, Chickweed: scale 0 to 100, 0 no effect, 100 complete control
Description: as §1

common sowthistle = assay: Test F preemergence test; assay type: in vivo, Sonchus oleraceous; conditions: scale 0 to 100
Text: (§2) Seeds of plant species selected from bermudagrass (Cynodon dactylon), Surinam grass (Brachiaria decumbens), large crabgrass (Digitaria sanguinalis), green foxtail (Setaria viridis), goosegrass (Eleusine indica), johnsongrass (Sorghum halepense), kochia (Kochia scoparia), pitted morningglory (Ipomoea lacunosa), purple nutsedge (Cyperus rotundus), common ragweed (Ambrosia elation), mustard (Brassica nigra), guineagrass (Panicum maximum), […] (Paspalum dilatatum), barnyardgrass (Echinochloa crus-galli), southern sandbur (Cenchrus echinatus), common sowthistle (Sonchus oleraceous), prickly […] spinosa), Italian ryegrass (Lolium multiflorum), common purslane (Portulaca oleracea), broadleaf signalgrass (Brachiaria platyphylla), common groundsel (Senecio vulgaris), common chickweed (Stellaria media), Virginia dayflower (Commelina virginica), annual bluegrass (Poa annua), naked crabgrass (Digitaria nuda), […] cochinchinensis), quackgrass (Elytrigia repens), Canada horseweed (Conyza canadensis), field bindweed (Convolvulus arvensis), […] (Bidens bipinnata), common mallow (Malva sylvestris), Russian thistle (Salsola kali), and sugarcane (Saccharum officinarum) were planted and treated preemergence with test chemicals formulated in a non-phytotoxic solvent mixture which included a surfactant. At a different time, sugarcane was treated with postemergence applications of some of the test chemicals formulated in the same manner. Plants were approximately 3- to 4-leaf stage for the postemergence treatments. Treated plants and controls were maintained in a greenhouse for 14 to 21 days, after which time all species were compared to controls and visually evaluated. […] A dash (-) response means no test result.

spanishneedles = assay: Test F preemergence test; assay type: in vivo, Bidens bipinnata; conditions: scale 0 to 100
Text: as §2

Row | Compound | Plant response rating (0 to 100), Windgrass (windgrass; 31 g ai/ha) | Plant response rating (0 to 100), Windgrass (windgrass; 62 g ai/ha) | Plant response rating, Windgrass (windgrass; 125 g ai/ha) | Plant response rating, Windgrass (windgrass; 250 g ai/ha) | Plant response rating (0 to 100), Barley (winter barley; 31 g ai/ha) | Plant response rating, Barley (winter barley; 62 g ai/ha) | Plant response rating, Barley (winter barley; 125 g ai/ha) | Plant response rating, Barley (winter barley; 250 g ai/ha) | Plant response rating (0 to 100), Canarygrass (canarygrass; 31 g ai/ha) | Plant response rating, Canarygrass (canarygrass; 62 g ai/ha) | Plant response rating, Canarygrass (canarygrass; 125 g ai/ha) | Plant response rating, Canarygrass (canarygrass; 250 g ai/ha) | Plant response rating (0 to 100), Chickweed (chickweed; 31 g ai/ha) | Plant response rating, Chickweed (chickweed; 62 g ai/ha) | Plant response rating, Chickweed (chickweed; 125 g ai/ha) | Plant response rating, Chickweed (chickweed; 250 g ai/ha) | Plant response rating, Spanishneedles (spanishneedles; Preemergence, 31 g ai/ha) | also measured
1 | CCn1nc(C(F)(F)F)c(C[S+]([O-])c2cccc[n+]2[O-])c1OCC(F)(F)F (racemic) [Compound 65] | 50 | 90 | 100 | 100 | 0 | 20 | 40 | 40 | 0 | 20 | 20 | 25 | 30 | 40 | 80 | 100 | – | –
2 | CC(Oc1c(C[S+]([O-])c2cccc[n+]2[O-])c(C(F)(F)F)nn1C)C(F)(F)F (stereo not shown) [Compound 77] | – | – | – | – | – | – | – | – | – | – | – | – | – | – | – | – | – | Plant response rating, Sowthistle (common sowthistle; 16 g ai/ha, preemergence): 0; Sowthistle plant response rating (common sowthistle; 125 g ai/ha, preemergence): 50; Plant response rating, Sowthistle (common sowthistle; Preemergence, 31 g ai/ha): 0
3 | Cc1cc[n+]([O-])c(S(=O)(=O)Cc2c(C(F)(F)F)nn(C)c2Cl)c1 [Compound 19] | – | – | – | – | – | – | – | – | – | – | – | – | – | – | – | – | – | Sowthistle plant response rating (common sowthistle; 62 g ai/ha, Preemergence): 80; Sowthistle plant response rating (common sowthistle; 125 g ai/ha, preemergence): 95; Plant response rating, Sowthistle (common sowthistle; Preemergence, 31 g ai/ha): 0
4 | Cn1nc(C(F)(F)F)c(C[S+]([O-])c2cccc[n+]2[O-])c1OCC(F)(F)F (racemic) [Compound 28] | – | – | – | – | – | – | – | – | – | – | – | – | – | – | – | – | 80 | Spanishneedles plant response rating (spanishneedles; 62 g ai/ha, Preemergence): 100; Spanishneedles plant response rating (spanishneedles; 125 g ai/ha, preemergence): 100
5 | CCn1nc(C(F)(F)F)c(C(C)S(=O)(=O)c2cccc[n+]2[O-])c1OCC(F)(F)F (stereo not shown) [Compound 69] | 40 | 95 | 95 | 100 | 0 | 0 | 20 | 25 | 0 | 0 | 0 | 10 | 0 | 0 | 0 | 40 | – | –
6 | [O-][n+]1cc(Cl)ccc1[S+]([O-])Cc1c(C(F)(F)F)nn(CC(F)(F)F)c1Cl (stereo not shown) [Compound 47] | 0 | 0 | 95 | 98 | 0 | 0 | 10 | 45 | 0 | 0 | 0 | 40 | 0 | 0 | 0 | 0 | – | –
7 | Cc1cc[n+]([O-])c(S(=O)(=O)Cc2c(C(F)(F)F)nn(C)c2OCC(F)(F)F)c1 [Compound 31] | – | – | – | – | – | – | – | – | – | – | – | – | – | – | – | – | 100 | Plant response rating, Spanishneedles (spanishneedles; 16 g ai/ha, preemergence): 0; Plant response rating, Spanishneedles (spanishneedles; Preemergence, 62 g ai/ha): 100
8 | Cn1nc(C(F)(F)F)c(C[S+]([O-])c2cccc[n+]2[O-])c1OCC(F)(F)C(F)(F)F (stereo not shown) [Compound 78] | 0 | 0 | 95 | 100 | 0 | 0 | 0 | 0 | 0 | 0 | 0 | 0 | 0 | 0 | – | – | – | –
9 | CC(c1c(C(F)(F)F)nn(C)c1Cl)S(=O)(=O)c1ccc(Cl)c[n+]1[O-] (racemic) [Compound 40] | 45 | 45 | 85 | 85 | 0 | 0 | 0 | 0 | 0 | 0 | 0 | 30 | 0 | 0 | 0 | 0 | – | –
10 | Cn1nc(OC(F)F)c(CS(=O)(=O)c2cccc[n+]2[O-])c1C(F)(F)F [Compound 80] | – | – | – | – | – | – | – | – | – | – | – | – | – | – | – | – | 0 | Plant response rating, Spanishneedles (spanishneedles; 16 g ai/ha, preemergence): 0; Spanishneedles plant response rating (spanishneedles; 125 g ai/ha, preemergence): 0; Plant response rating, Spanishneedles (spanishneedles; Preemergence, 62 g ai/ha): 0
11 | Cn1nc(C(F)(F)C(F)(F)F)c(C[S+]([O-])c2cccc[n+]2[O-])c1OCC(F)(F)F (stereo not shown) [Compound 79] | 60 | 100 | 100 | 100 | 0 | – | 0 | 0 | 0 | – | 0 | 0 | 70 | – | 100 | 100 | – | Plant response rating (0 to 100), Barley (winter barley; 62 g ai/ha): 0; Plant response rating (0 to 100), Canarygrass (canarygrass; 62 g ai/ha): 0; Plant response rating (0 to 100), Chickweed (chickweed; 62 g ai/ha): 100
12 | CC(Oc1c(C[S+]([O-])c2ccc(Cl)c[n+]2[O-])c(C(F)(F)F)nn1C)C(F)(F)F (stereo not shown) [Compound 87] | – | – | – | – | – | – | – | – | – | – | – | – | – | – | – | – | 0 | Plant response rating, Spanishneedles (spanishneedles; 16 g ai/ha, preemergence): 0; Spanishneedles plant response rating (spanishneedles; 125 g ai/ha, preemergence): 100; Plant response rating, Spanishneedles (spanishneedles; Preemergence, 62 g ai/ha): 100
13 | CC(Oc1c(CS(=O)(=O)c2cccc[n+]2[O-])c(C(F)(F)F)nn1C)C(F)(F)F (stereo not shown) [Compound 82] | 70 | 90 | 100 | 100 | 0 | – | 0 | 0 | 0 | – | 0 | 0 | 0 | – | 0 | 0 | – | Plant response rating (0 to 100), Barley (winter barley; 62 g ai/ha): 0; Plant response rating (0 to 100), Canarygrass (canarygrass; 62 g ai/ha): 0; Plant response rating (0 to 100), Chickweed (chickweed; 62 g ai/ha): 0
14 | Cn1nc(C(F)(F)F)c(CS(=O)(=O)c2cccc[n+]2[O-])c1OCC(F)(F)F [Compound 29] | – | – | – | – | – | – | – | – | – | – | – | – | – | – | – | – | 0 | Spanishneedles plant response rating (spanishneedles; 62 g ai/ha, Preemergence): 0; Spanishneedles plant response rating (spanishneedles; 125 g ai/ha, preemergence): 25
